Measured values taken from patent publication US20090117155A1, “TREATMENT OF HIV-1 BY MODULATION OF VPR ACTIVATION OF THE M-CSF PROMOTER” (priority 2006, published 2009).

How the values were obtained:
M-CSF promoter = M-CSF promoter luciferase reporter (pGL3-M-CSF) in primary human macrophages; type: cell-based
Protocol: (§1) Peripheral blood mononuclear cells (PBMC) were isolated from heparinized whole blood or buffy coats acquired from healthy seronegative blood donors by density-gradient centrifugation (Histopaque-1017, Sigma-Aldrich, St. Louis, Mo.). CD14+ monocytes were isolated from prepared PBMC using the Miltenyi AutoMACS system (Miltenyi Biotec, Auburn, Calif.). Briefly, cells were incubated with anti-CD14 monoclonal antibody-coated microbeads (Miltenyi Biotec, Auburn, Calif.) at 4° C. for 15 minutes and run on an AutoMacs separator. […] Recovered CD14+ monocytes were used immediately in transfection experiments. For macrophage preparation, PBMC were incubated in RPMI 1640 (Invitrogen, Carlsbad, Calif.) containing 20% FBS, 10% human AB serum, 2 mM L-glutamine and penicillin (50 U/ml)/streptomycin (50 μg/ml) overnight at 37° C. Adherent cells were washed 3 times with phosphate-buffered saline (PBS), removed with cold PBS 0.02% EDTA and differentiated into macrophages for 6 days in DMEM supplemented with 10% human AB serum and 2 mM L-glutamine. THP1 cells were cultivated in RPMI 1640 supplemented with 10% FBS, 2 mM L-glutamine and penicillin (50 U/ml)/streptomycin (50 μg/ml) (=complete medium).
The M-CSF promoter (−1310/+48 bp) was amplified from human genomic DNA by PCR with the primers 5′-[…]-3′ (SEQ ID NO: 20) and 5′-[…] […]-3′ (SEQ ID NO: 21). […] Amplification consisted of 30 cycles of 30 s at 94° C., 30 s at 58° C., and 6 min at 72° C. All the constructs were verified by sequencing (Nucleic Acid Facility, Jefferson University, PA USA).
(§2) THP1 cells (2×106/transfection) were transiently transfected with Effecten reagent (Qiagen, Santa Clara, Calif.) using 1 μg of plasmid DNA, 8 μl enhancer and 10 μl effectene. Cells were incubated in complete medium for 24 hours in 6-well plates. Human primary CD 14+ cells were transfected using the Human Monocyte Nucleofector Kit (Amaxa, Gaithersburg, Md.) according to the manufacturer's instructions. Briefly, 5×10^6 CD 14+ cells were resuspended in 100 μl of nucleofector solution (Amaxa) with 5 μg of DNA and electroporated using the program Y-001. Cells were then transferred in 1.5 ml of Human Monocyte Nucleofector medium (Amaxa) in 24-well plates for 24 hours. Human macrophages were transfected using the Human Macrophage Nucleofector Kit (Amaxa) according to the manufacturer's specifications. In brief, 0.5×10^6 macrophages were resuspended in 100 μl of nucleofector solution (Amaxa) with 5 μg of DNA and electroporated using the program Y-010. Cells were incubated for 24 hours in advanced RPMI (Invitrogen, Carlsbad, Calif.) supplemented with 10% FBS and 2 mM L-glutamine in 12-well plates. One day after transfection, cells were harvested by centrifugation and cell pellets were resuspended in 200 μl of lysis buffer (Promega). Twenty microliters of cell lysate was assayed for luciferase activity using the Luciferase Assay System (Promega). The protein concentration was determined with the BCA Protein Assay Reagent (Pierce, Rockford, Ill.) and the luciferase activity was expressed in Relative Light Unit (RLU) per μg of protein.

M-CSF = M-CSF production in culture supernatants of primary human macrophages (ELISA); type: cell-based
Protocol: as §1, §2
M-CSF and IL-6 production in cell culture supernatants were assessed by ELISA according to the manufacturer's instructions (R&D systems, Minneapolis, Minn.).

HIV-1 LTR = settings: Schafer et al., 2006; cited from earlier work
HIV-1 = settings: Schafer et al., 2006; cited from earlier work
mammary tumorigenesis = settings: Bcra1/p53-deficient mice, Poole et al., 2006; cited from earlier work
[1] = concentrations as high as 100 μM, in the absence of Vpr
[2] = primary macrophages co-transfected with pGL3-M-CSF and Vpr vector

Molecule: IL-6: cytokine IL-6 used to treat primary macrophages for 24 hours
- M-CSF transcription (M-CSF promoter; primary macrophages treated for 24 hours): 50.1±0.4 RLU/μg of protein

Molecule: CC#C[C@]1(O)CC[C@H]2[C@@H]3CCC4=CC(=O)CCC4=C3[C@@H](c3ccc(N(C)C)cc3)C[C@@]21C [RU486, mifepristone]
- inhibition at 20 µM (M-CSF promoter; Homo sapiens, Primary macrophage, 20 μM, primary macrophages co-transfected with pGL3-M-CSF and Vpr vector, read-out: inhibition of Vpr-dependent M-CSF promoter activity): > 50%
- effect on basal level of M-CSF promoter activity (M-CSF promoter; [1]): did not completely inhibit
- effect on Vpr-dependent M-CSF promoter activity (M-CSF promoter; [2]): dose-dependent decrease
- inhibition of the Vpr effect on M-CSF production (M-CSF; 50 μM, primary macrophages co-transfected with pGL3-M-CSF and Vpr vector): total inhibition
- inhibition at 10 µM (M-CSF; Homo sapiens, Primary macrophage, 10 μM, primary macrophages co-transfected with pGL3-M-CSF and Vpr vector, read-out: inhibition of Vpr induced M-CSF production): > 50%
- effect on basal level M-CSF production (M-CSF; [1]): did not completely inhibit
- concentration required for inhibition of M-CSF induction by Vpr (M-CSF; primary human macrophages): approximately 10 μM
- effect on Vpr-dependent M-CSF production (M-CSF; [2]): dose-dependent decrease
- Vpr-induced transactivation of the HIV-1 LTR (HIV-1 LTR): inhibits
- viral replication in PBMCs (HIV-1): inhibits
- mammary tumorigenesis (mammary tumorigenesis): prevent mammary tumorigenesis

Molecule: CC(=O)[C@H]1CC[C@H]2[C@@H]3CCC4=CC(=O)CC[C@]4(C)[C@H]3CC[C@]12C [progesterone]
- effect on M-CSF promoter activity (M-CSF promoter; primary macrophages transfected with pGL3-M-CSF, different concentrations, no Vpr): no increase
